Measured values published in a melting point compilation (Tetko et al.; mined from patent text by program, amines drawn as free bases though some values may be those of a salt).

SMILES	melting point [°C]
CCCc1c2nc(C(=O)OC)cc(N(C)S(=O)(=O)c3ccc(C)cc3)c2cc2c(=O)cc(C(=O)OCC)oc12	173 to 174
O=C(CCCCCCC(=O)Oc1cc(O)cc(O)c1)Oc1cc(O)cc(O)c1	185 to 188
CCOc1cc2ncc(C#N)c(Nc3cccc(C(C)=O)c3)c2cc1OCC	191 to 194
CNC(=O)N1CCC(Oc2ccc(C(F)(F)F)cc2)(c2ccccc2)CC1	118 to 120
Cc1cc(SC(C)c2ccc3nc(-c4ccc(C(F)(F)F)cc4)sc3c2)ccc1OCC(=O)O (centres undefined)	170 to 173
O=C(O)CCc1cn(Cc2ccc(OCc3ccc4ccccc4n3)cc2)nc1-c1ccc(F)cc1	178 to 179
O=C(Nc1ccc(Cl)c2c(Cl)ccnc12)c1c(Cl)cccc1Cl	243 to 247
COC(=O)CCC(=O)N(C)c1cccc(OCc2nc3ccccc3s2)c1	107 to 110
OC(CCC1CCNCC1)c1cc(-c2ccccc2)nc2ccccc12 (centres undefined)	162
O=C1C2CCCC2Nc2ccccc2N1Cc1ccccc1 (centres undefined)	172 to 173
O=C1CCCN1CCCN=c1sc2ccc(Cl)cc2s1	97 to 97.5
COc1c(N2C[C@@H](N)[C@@H](C)C2)c(F)cc2c(=O)c(C(=O)O)cn(C3CC3)c12 (relative stereo)	192 to 194
Cn1cc(-c2cc3nccnc3[nH]2)c2cc(OC3(CO)CCC3)ccc21	267 to 271
COc1ccc(-c2coc3c(C)c(O)ccc3c2=O)cc1	235
c1ccc(Nc2ncc3cc4ccccc4n3n2)cc1	188 to 193
CCN(CC)C(C)(C)CNC1(c2ccccc2Cl)C(=O)Nc2ccc(Cl)cc21 (centres undefined)	174
COc1ccc(C(=O)Nc2ncc(Cl)cc2Cl)c2c1oc1ccccc12	302
CCOC(=O)CC(C)(O)c1ccc(-c2ccccc2)cc1 (centres undefined)	58 to 60
CCCCCN1N=C(c2ccc(OCC)c(OCC)c2)[C@@H]2CCCC[C@@H]2C1=O (relative stereo)	98 to 99
O=C(O)C1CCc2c([nH]c3ccc(F)cc23)C1 (centres undefined)	> 200
CCCCCCCCCCCCCCOc1ccc(CC(=O)OC)cc1F	38 to 40
COc1cc2c(cc1C#Cc1ccccc1)NC(=O)CC(c1cccc(C#N)c1)=N2	> 250
O=C1CCN(Cc2ccc([N+](=O)[O-])cc2)C(=O)C1=C1SC=CS1	192 to 193
CCC(=O)C(CCCCCCOc1ccc(OC)cc1)C(=O)CC	50 to 51
O=C1C(=O)c2ccccc2C2=C1SCC(CNCCc1ccccc1)O2 (centres undefined)	80 to 82

SMILES	melting point [°C]
COc1ccc(C(=O)Nc2nc(-c3cccc(C#N)c3)c(-n3cncn3)s2)cc1	292 to 294
COC(=O)ON1C(=O)c2ccccc2C1=O	129 to 135
Cc1ccc(C(=O)c2cc3cc(Br)ccc3n2C)cc1	169 to 171
CCOC(=O)c1c(-c2ccccc2C)c2cc(Cl)ccc2n(C)c1=O	113 to 114
COc1ccc(-n2c(-c3ccc(SC)cc3)nc(SC)c(C#N)c2=O)cc1	214 to 216
CCOC(=O)c1cn(C2COC2)c2c(F)c(F)c(F)c(NCc3ccccc3)c2c1=O	127 to 128
CCc1cc(NCc2ccc(-c3ccccc3C#N)cc2)n2ncc(Cl)c2n1	152 to 154
O=[N+]([O-])c1ccc(Sc2ncc(Cl)cn2)s1	141 to 143
O=C(COc1cc(C(=O)O)c(O)c2ccccc12)c1ccccc1	120 to 121
CC(C)(C)c1cc(-c2nnc(NCCO)s2)cc(C(C)(C)C)c1O	212 to 214
Cl/C(=C/n1cncn1)c1ccc(Br)cc1Cl	84
Nc1nc(Cl)c2c(n1)CCCS2	196 to 198
C[Si](C)(C)C#Cc1ccc(C2=CC(c3ccc(C#C[Si](C)(C)C)cc3)N(c3ccccc3)N2)cc1 (centres undefined)	108 to 110
CC(C)(C#N)c1cc(C(Cl)c2cncnc2)cc(C(C)(C)C#N)c1 (centres undefined)	118 to 121
CC(=O)Nc1cc([N+](=O)[O-])ccc1OCCCCl	130
CS(=O)(=O)Oc1cnc2ccccc2c1O	224
O=C1C2=NCCCN2c2cc(Cl)c([N+](=O)[O-])cc21	152 to 165
O=C1C(CCO)Oc2cc([N+](=O)[O-])ccc2N1Cc1ccccc1 (centres undefined)	102 to 105
CON1CCC2(CC1)C(O)=C(c1c(C)cc(C)cc1C)C(=O)N2OC1CCCO1 (centres undefined)	144 to 146
COc1cc(Cl)c(CO)c(Cl)c1	71 to 72
Nc1ccc(Oc2c(Cl)cc(C(F)(F)F)cc2Cl)cc1S(=O)(=O)c1cc[nH]n1	232
O=C(Nc1ccccc1)N1CCC(C(Nc2ccc(F)cc2)c2ccc(F)cc2)CC1 (centres undefined)	96 to 101
CCOC(=O)c1c(CBr)n(C)c2cc(Br)c(OC(C)=O)cc12	179 to 180
CC(C)(C)OC(=O)N(C(=O)OC(C)(C)C)c1cc(-c2ccc([N+](=O)[O-])cc2)n(C(=O)OC(C)(C)C)n1	154 to 155
CCCCOC(=O)NCc1cccc(C(=O)C=CN(C)C)c1	80 to 82

SMILES	melting point [°C]
CC(=O)OC1C(C)OC(OC(=N)C(Cl)(Cl)Cl)C(OC(C)=O)C1OC(C)=O (centres undefined)	60 to 63
COc1cc2cc(CO)c(CO)c(C)c2cc1OC	180 to 182
Cc1oc(-c2ccccc2)nc1CCOc1ccc(C=CC#N)cc1	112 to 113
CCCCCCCCCCCCCCOc1ccc(CN(Cc2ccccn2)S(C)(=O)=O)cc1	62 to 63
COC(=O)c1ccc(NC(=O)C(CC2CCCC2)c2ccc(F)c(C(F)(F)F)c2)nc1 (centres undefined)	270 to 275
CCCCCCCCCCCCCCOc1cc(OCCCOc2ccc(OCc3ccccc3)cc2)cc(C(=O)O)c1	77 to 79
COc1cc(Nc2nccc(-c3ccc4c(c3)CCCC4)n2)cc(OC)c1OC	150 to 151
CN(C)c1ccc(C2OC(=O)c3cc(N(C)C)ccc32)c(Cl)c1 (centres undefined)	159 to 160
CCC(COCc1cc(OC)c(O)c(OC)c1)(c1cccs1)N(C)C (centres undefined)	126 to 127
COC(=O)c1cc([N+](=O)[O-])ccc1Nc1ccc(CCc2ccc(Cl)c(Cl)c2)cc1	107 to 108
Cc1ccc(-c2occc2C#N)cc1	66
COc1cccc(CNc2nccc(-c3cc(N4CCN(CCCN5CCOCC5)CC4)c4cc(OC)ccc4c3)n2)c1	65 to 73
COCOc1c(C)cc(-c2ccc(C(=O)OC)cc2)cc1C	100 to 101
COc1ccc(Nc2cc(-c3ccc(S(C)(=O)=O)cc3)nc(N)n2)cc1Cl	241 to 244
CCN(CC)c1ccccc1C(=O)O	122 to 123
Cc1c(C(=O)Nc2ccc(N3CCC(O)CC3)c(C#N)c2)c2cc(F)ccc2n1CC(=O)O	> 250
CCCCC=Cc1ccc(Cc2c(C)[nH]c3ccc(C(=O)OC)cc23)c(Cl)c1	141 to 146
CCCOCC1(C)CCCOc2cc(C#Cc3ccc(C(=O)O)cc3)ccc21 (centres undefined)	148 to 149
N#Cc1ccc(N2C[C@H](O)C[C@@H]2CO)c2ccccc12	146 to 147
CN(C)c1cc(N)c(C(=O)O)cc1[N+](=O)[O-]	240 to 250
CC(C)CCC(=O)N1CCN(C(=O)OC(C)(C)C)CC1	88 to 90.2
CCCCCCCCCCCCCCCCCCOC(=O)Cc1cc(C(C)(C)C)c(O)c(C)c1C	79 to 81
CN(C)CCCN=C1CC(c2ccc(Cl)c(Cl)c2)Cc2c1c(=O)c1cc(Cl)ccc1n2O (centres undefined)	208 to 210
N#Cc1c(N2CCc3ccccc3CC2)nc(N)[nH]c1=O	> 200
O=C(N[C@H]1CC[C@H](CCN2CCN(c3nccc4c3CCO4)CC2)CC1)c1ccc2c(c1)OCO2	244

SMILES	melting point [°C]
FC(F)(F)c1cc(I)cc(OCc2ccc3ccccc3c2)c1	65 to 66
Cc1cccc2c(=O)[nH]c(CCN3CC[C@H](O)C3)cc12	176 to 178
COc1ccc(NCC(=O)N2CCC(Oc3ccc(Cl)cc3)CC2)cc1	127 to 130
O=S(=O)(c1ccccc1)n1c(SC(F)(F)F)nc(-c2ccc(F)cc2)c1-c1ccc(F)cc1	154 to 155
CCOCc1nc2nc(O)cnc2c(=O)[nH]1	255 to 256
Cc1nc(N)sc1C(=O)OC(C)(C)C	167 to 170
O=c1[nH]c(-c2ccccc2)cn1CCO	203 to 205
c1csc(OCCOc2ccc3ccccc3c2)c1	129 to 130
COc1ccc(Cl)cc1C(=O)NCCc1ccc(-c2ccc(OC(C)(C)CO)cc2)cc1	115
Cc1cn2cccc(OCc3ccc(F)cc3)c2n1	137
c1ccc2c(c1)CCC21CCN(CCCCN2CCC3(CCc4ccccc43)CC2)CC1	113 to 115
Cc1oc(-c2ccccc2)nc1COc1ccc(COc2ccc(-c3ccccc3)cc2CC(=O)O)cc1	102 to 103
O=C(O)CCc1cc(C=Nc2ccccc2O)c(O)c(C=Nc2ccccc2O)c1	204 to 205
COc1ccc(Cc2nccc3c4c(ccc23)OCO4)cc1OC	111
OCCON=Cc1cncc(-c2ccccc2)c1	102 to 104
Cc1nn(CCO)c(C)c1Oc1cc(Cl)cc(C#N)c1	114 to 116
COc1cc(NC(C)=O)cc(OC)c1-c1ccc(C[C@H](NC(=O)c2c(Cl)cccc2Cl)C(=O)O)cc1	243 to 244
OC1(c2ccc(Cl)cc2)CCCNC12CCCCC2 (centres undefined)	158 to 164
CCOC(=NC(=O)Nc1ccc(OC(F)(F)F)cc1)N1Cc2ccccc2-c2ccccc2C1	129 to 130
CN1CCN(c2ccc(-c3[nH]nc4c3C(=O)c3c(NC(=O)NN(C)C)cccc3-4)cc2)CC1	192
O=S(=O)(c1ccc(-n2ncnc2-c2cnccn2)cc1)C(F)F	152 to 154
COCN1C(C)=C(C(=O)OCOC(=O)C(C)(C)C)C(c2ccccc2C(F)(F)F)C(C(=O)OCOC(=O)C(C)(C)C)=C1C	96 to 97
Cn1ncc2c1-c1c(Cc3ccccc3)sc(C(=O)O)c1CC2	> 300
Cc1cc(CC(=O)O)[nH]c1C(=O)c1ccccc1	167 to 168
